Legend:
Format in all cases: physicochemical
[1] = Chemical and physical stability of the salts at the end of the preparation
Text: It is crucial for drug development whether the salts obtained as above have chemical and physical stability at the end of the preparation. The chemical and physical stability of the salts at the end of the preparation includes: […]

[2] = Solid storage stability test; settings: for Original morphology / Original purity: original solid before storage; for chemical and physical stability after storage (summary): solid/25° C./60% RH/open/1 week and/or solid/60° C./closed container/1 week
Method: Each amorphous salt solid was weighed (two 2 mg samples were weighed for purity testing after solid storage stability study, and one 10 mg sample was weighed for XRPD testing after solid storage stability study) and placed in a glass vial. In a 25° C./60% RH solid storage stability test, the amorphous salt solid was placed in a 25° C./60% RH constant temperature and humidity chamber, and placed in the dark for 1 week (i.e. “solid/25° C./60% RH/open/1 week”), and in a 60° C. solid storage stability test, the amorphous salt solid was sealed in an oven at 60° C. and heated for 1 week in the dark (i.e. “solid/60° C./closed container/l week”). Then the sample was taken out for purity testing, crystal form detection and appearance observation, respectively.

[3] = Solid solubility test (2 h and 24 h); settings: for Solubility measured at 2 h: 37° C., based on free base; for XRPD measured at 2 h: state of sample / solid fraction; for XRPD measured at 24 h: 24 h test, state of sample
Method: samples were weighed for each amorphous salt solid (equivalent to 20 mg of free base), and 10 mL of the following solvents were respectively added: 0.1N HCl solution (pH 1.0), 50 mM phosphate buffer (pH 4.5), FeSSIF-V1 (pH 5.0), FaSSIF-V1 (pH 6.5) and SGF (pH 2.0), […] The suspension was then centrifuged at 37° C., the supernatant was measured for solubility by HPLC, and the solid fraction was measured for XRPD. The target solubility was at least 2 mg (based on free base)/mL.

[4] = listed as 2 eq. hydrochloride salt
[5] = listed as amorphous 2 eq. hydrochloride salt
[6] = Test BS1: solid/25° C./60% RH/open/1 week
[7] = solid/60° C./closed container/1 week (Test BS1)
[8] = FaSSIF-V1 (pH 6.5) (Test ES4, partly printed ES1)
[9] = Test ES1: 0.1N HCl solution (pH 1.0)
[10] = Test ES2: 50 mM phosphate buffer (pH 4.5)
[11] = listed as amorphous 1 eq. mesylate salt
[12] = listed as amorphous 2 eq. mesylate salt
[13] = listed as amorphous 1 eq. besylate salt

Structure (SMILES) | Purity [2, 6] [%] | Original morphology [2] | Original purity [2] [%] | Purity [2, 7] [%] | pH measured at 2 h [3, 8] | Solubility measured at 2 h [3, 8] [µg/mL] | XRPD measured at 2 h [3, 8] | pH measured at 2 h [3, 9] | Solubility measured at 2 h [3, 9] [µg/mL] | XRPD measured at 2 h [3, 9] | pH measured at 2 h [3, 10] | Solubility measured at 2 h [3, 10] [µg/mL] | XRPD measured at 2 h [3, 10] | pH measured at 2 h ([3]; Test ES3: FeSSIF-V1 (pH 5.0)) | Solubility measured at 2 h ([3]; Test ES3: FeSSIF-V1 (pH 5.0)) [µg/mL] | XRPD measured at 2 h ([3]; Test ES3: FeSSIF-V1 (pH 5.0)) | pH measured at 2 h ([3]; Test ES5: SGF (pH 2.0)) | Solubility measured at 2 h ([3]; Test ES5: SGF (pH 2.0)) [µg/mL] | XRPD measured at 2 h ([3]; Test ES5: SGF (pH 2.0)) | also measured
C=CC(=O)Nc1cc(Nc2ncnc(-c3cn(C)c4ccccc34)n2)c(OC)cc1N(C)CCN(C)C [Example 3] | 99.6 | amorphous | 99.9 | 99.6 | (6.1) | >2000 | clear solution | (0.71 | >2000 | clear solution | (4.2) | >2000 | clear solution | (4.8) | >2000 | clear solution | (1.8) | >2000 | clear solution | chemical and physical stability at the end of the preparation [1, 4]: chemically and physically stable; chemical and physical stability at the end of the preparation [1, 5]: chemically and physically stable; chemical and physical stability after storage (summary) [2, 4]: physically unstable; chemical and physical stability after storage (summary) [2, 5]: physically unstable; physical and chemical stability under storage (in words) ([2]; solid/25° C./60% RH/open/1 week, listed as amorphous 2 eq. hydrochloride salt): slight color change and showed a certain hygroscopicity (partial agglomeration); physical and chemical stability under storage (in words) ([2]; solid/60° C./closed container/1 week, listed as amorphous 2 eq. hydrochloride salt): good physical and chemical stability
C=CC(=O)Nc1cc(Nc2ncnc(-c3cn(C)c4ccccc34)n2)c(OC)cc1N(C)CCN(C)C [Example 4] | 99.8 | amorphous | 99.9 | 99.9 | (6.5) | >2000 | clear solution | (0.7) | >2000 | clear solution | (4.5) | >2000 | clear solution | (4.8) | >2000 | clear solution | (2.0) | >2000 | clear solution | chemical and physical stability at the end of the preparation ([1]; listed as 1 eq. mesylate salt): chemically and physically stable; chemical and physical stability at the end of the preparation [1, 11]: chemically and physically stable; chemical and physical stability after storage (summary) ([2]; listed as 1 eq. mesylate salt): chemically and physically stable; chemical and physical stability after storage (summary) [2, 11]: chemically and physically stable; physical and chemical stability under storage (in words) ([2]; solid/25° C./60% RH/open/1 week, listed as amorphous 1 eq. mesylate salt): good physical and chemical stability; physical and chemical stability under storage (in words) ([2]; solid/60° C./closed container/1 week, listed as amorphous 1 eq. mesylate salt): good physical and chemical stability; Solubility measured at 24 h ([3]; Test ES3: FeSSIF-V1 (pH 5.0)): >2000 µg/mL; pH measured at 24 h ([3]; Test ES3: FeSSIF-V1 (pH 5.0)): (5.0); XRPD measured at 24 h ([3]; Test ES3: FeSSIF-V1 (pH 5.0)): clear solution; Solubility measured at 24 h ([3]; Test ES4: FaSSIF-V1 (pH 6.5)): >2000 µg/mL; pH measured at 24 h ([3]; Test ES4: FaSSIF-V1 (pH 6.5)): (6.6); XRPD measured at 24 h ([3]; Test ES4: FaSSIF-V1 (pH 6.5)): clear solution
C=CC(=O)Nc1cc(Nc2ncnc(-c3cn(C)c4ccccc34)n2)c(OC)cc1N(C)CCN(C)C [Example 5] | 99.9 | amorphous | 99.9 | 99.8 | (6.2) | >2000 | clear solution | (0.7) | >2000 | clear solution | (4.2) | >2000 | clear solution | (4.8) | >2000 | clear solution | (1.8) | >2000 | clear solution | chemical and physical stability at the end of the preparation ([1]; listed as 2 eq. mesylate salt): chemically and physically stable; chemical and physical stability at the end of the preparation [1, 12]: chemically and physically stable; chemical and physical stability after storage (summary) ([2]; listed as 2 eq. mesylate salt): physically unstable; chemical and physical stability after storage (summary) [2, 12]: physically unstable; physical and chemical stability under storage (in words) ([2]; solid/25° C./60% RH/open/1 week, listed as amorphous 2 eq. mesylate salt): transformed from amorphous to a low crystallinity and showed a certain hygroscopicity (agglomeration); physical and chemical stability under storage (in words) ([2]; solid/60° C./closed container/1 week, listed as amorphous 2 eq. mesylate salt): a certain hygroscopicity (partial agglomeration)
C=CC(=O)Nc1cc(Nc2ncnc(-c3cn(C)c4ccccc34)n2)c(OC)cc1N(C)CCN(C)C [Example 6] | 98.2 | amorphous | 99.7 | 99.6 | (6.5) | >2000 | clear solution | (0.7) | >2000 | clear solution | (4.5) | >2000 | clear solution | (4.8) | >2000 | clear solution | (2.1) | >2000 | clear solution | chemical and physical stability at the end of the preparation ([1]; listed as 1 eq. besylate salt): chemically and physically stable; chemical and physical stability at the end of the preparation [1, 13]: chemically and physically stable; decrease in purity ([2]; solid/25° C./60% RH/open/1 week): about 2%; chemical and physical stability after storage (summary) ([2]; listed as 1 eq. besylate salt): chemically unstable; chemical and physical stability after storage (summary) [2, 13]: chemically unstable; physical and chemical stability under storage (in words) ([2]; solid/60° C./closed container/1 week, listed as amorphous 1 eq. besylate salt): good physical and chemical stability
